SMILES strings stand for the structures. Where two headings read alike, the source gives them in different places.

One series has as its system GBM cell lines. Put plainly: cells. In kind it is cell-based. Conditions: Homo sapiens, 72 h.
Series [1] concerns tyrosine phosphoproteome of GBM tumors. The format is in vivo, human. Particulars: 4 sunitinib-treated versus 7 control GBM tumors, cut-off P < 0.05.
In the next series the target is PDGFRA (Homo sapiens, UniProt P16234). The format is in vivo. Conditions: known sunitinib target; 4 sunitinib-treated, 7 control tumors.
The target in the next series is PDGFRB (Homo sapiens, UniProt P09619). In kind it is in vivo. Conditions: known sunitinib target; 4 sunitinib-treated, 7 control tumors.
The subject of the next series is PTM signatures. Set-up: species or system human. Conditions: in vivo.
Series [2] is classed as in vivo, human. Particulars: all patients, last dose in the morning on the day of surgery.
The conditions of series [3]: 5 patients with GBM.
A further series relates to 398 cancer cell lines. Conditions: read-out: Geometric mean of the IC50, ref https://www.cancerrxgene.org/compound/Sunitinib/5/overview/ic50; cited from earlier work.
Another series concerns recurrent GBM. Particulars: sunitinib-treated patients with a recurrent GBM; cited from earlier work.
The next series in a line: clinical. Conditions: human, in vivo, po, 50 mg once daily.

Chain of PDGFRA (P16234 24-1089): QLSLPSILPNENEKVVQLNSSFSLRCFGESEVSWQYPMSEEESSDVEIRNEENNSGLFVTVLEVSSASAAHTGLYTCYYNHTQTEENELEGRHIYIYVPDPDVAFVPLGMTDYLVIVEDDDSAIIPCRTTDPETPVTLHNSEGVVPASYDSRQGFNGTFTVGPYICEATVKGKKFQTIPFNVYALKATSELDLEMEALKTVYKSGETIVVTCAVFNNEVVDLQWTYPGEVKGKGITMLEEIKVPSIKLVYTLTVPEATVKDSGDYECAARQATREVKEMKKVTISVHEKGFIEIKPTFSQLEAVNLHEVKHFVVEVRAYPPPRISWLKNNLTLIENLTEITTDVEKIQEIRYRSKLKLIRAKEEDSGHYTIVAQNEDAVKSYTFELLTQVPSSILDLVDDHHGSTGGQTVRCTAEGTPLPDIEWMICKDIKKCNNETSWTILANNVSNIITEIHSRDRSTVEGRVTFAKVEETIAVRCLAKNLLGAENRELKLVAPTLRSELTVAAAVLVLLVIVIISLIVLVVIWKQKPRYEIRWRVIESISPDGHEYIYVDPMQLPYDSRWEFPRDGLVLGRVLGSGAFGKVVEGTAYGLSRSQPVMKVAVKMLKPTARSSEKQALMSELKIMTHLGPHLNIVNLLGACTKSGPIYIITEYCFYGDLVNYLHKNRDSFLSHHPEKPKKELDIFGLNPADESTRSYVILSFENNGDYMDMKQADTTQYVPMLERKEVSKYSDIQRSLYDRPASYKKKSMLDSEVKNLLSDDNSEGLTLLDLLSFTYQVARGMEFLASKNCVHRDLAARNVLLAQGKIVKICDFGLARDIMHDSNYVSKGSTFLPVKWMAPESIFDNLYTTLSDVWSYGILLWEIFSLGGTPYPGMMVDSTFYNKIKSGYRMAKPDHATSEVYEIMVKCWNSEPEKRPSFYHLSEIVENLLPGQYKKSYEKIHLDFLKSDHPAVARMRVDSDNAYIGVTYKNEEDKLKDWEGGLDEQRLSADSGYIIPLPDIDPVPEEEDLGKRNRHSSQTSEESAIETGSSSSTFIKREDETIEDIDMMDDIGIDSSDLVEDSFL
Chain of PDGFRB (P09619 33-1106): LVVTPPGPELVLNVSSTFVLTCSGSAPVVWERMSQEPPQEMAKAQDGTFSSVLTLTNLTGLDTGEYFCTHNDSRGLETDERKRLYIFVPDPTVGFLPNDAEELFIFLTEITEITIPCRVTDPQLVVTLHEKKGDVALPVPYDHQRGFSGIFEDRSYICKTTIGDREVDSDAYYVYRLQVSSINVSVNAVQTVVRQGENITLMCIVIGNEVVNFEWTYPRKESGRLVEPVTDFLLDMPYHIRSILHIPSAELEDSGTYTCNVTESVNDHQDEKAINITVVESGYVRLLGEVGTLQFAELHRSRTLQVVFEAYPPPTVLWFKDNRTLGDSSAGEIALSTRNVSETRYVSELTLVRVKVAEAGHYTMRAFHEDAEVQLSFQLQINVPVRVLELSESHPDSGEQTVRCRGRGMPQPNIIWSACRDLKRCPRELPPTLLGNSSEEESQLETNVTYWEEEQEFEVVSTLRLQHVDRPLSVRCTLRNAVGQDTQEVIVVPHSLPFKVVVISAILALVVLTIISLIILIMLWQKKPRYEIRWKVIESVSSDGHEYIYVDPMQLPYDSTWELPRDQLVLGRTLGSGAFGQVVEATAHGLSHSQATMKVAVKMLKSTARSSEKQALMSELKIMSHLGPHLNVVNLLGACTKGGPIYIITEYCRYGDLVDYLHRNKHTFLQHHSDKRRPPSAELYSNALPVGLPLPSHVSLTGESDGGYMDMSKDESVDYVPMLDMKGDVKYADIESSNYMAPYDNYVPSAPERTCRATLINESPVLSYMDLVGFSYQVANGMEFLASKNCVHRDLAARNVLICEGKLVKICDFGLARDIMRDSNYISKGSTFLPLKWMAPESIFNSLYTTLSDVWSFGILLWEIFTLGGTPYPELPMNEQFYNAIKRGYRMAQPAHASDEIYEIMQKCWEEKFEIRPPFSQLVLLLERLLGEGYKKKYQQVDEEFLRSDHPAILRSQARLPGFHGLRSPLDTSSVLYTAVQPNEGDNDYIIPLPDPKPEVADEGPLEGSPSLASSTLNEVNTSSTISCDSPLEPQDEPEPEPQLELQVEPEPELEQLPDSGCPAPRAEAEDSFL

Regarding `CCN(CC)CCNC(=O)c1c(C)[nH]c(/C=C2\C(=O)Nc3ccc(F)cc32)c1C` [sunitinib], the IC50 in the series with GBM cell lines (read-out: Median IC50 in GBM cell lines) came to 5.4 µM. For the same molecule, the IC50 in the series on GBM cell lines (read-out: Range of IC50 in GBM cell lines) lay in the range of 3 to 8.5 µM. Further, in [1], the “Number of significantly downregulated phosphopeptides” value is listed as 23 and the “Number of significantly upregulated phosphopeptides” value came to 108. Besides, at PDGFRA, the “Kinase activity of PDGFRA (INKA), sunitinib-treated versus control” value is “low and not significantly different between the groups”. The “Kinase activity of PDGFRB (INKA), sunitinib-treated versus control” value at PDGFRB is “low and not significantly different between the groups”. Also, in the series on PTM signatures, the “Moderately significant enriched signatures (PTM-SEA)” value was “Two moderately significant NetPath derived signatures” and the “Strongly significantly enriched phosphosite signatures (PTM-SEA)” value is listed as “three strongly significantly enriched phosphosite signatures”. Moreover, the “Perioperative complications of tumor resection after preoperative treatment” value in [2] is given as “without perioperative complications”. Moreover, in series [3], the “Relation between sunitinib tumor accumulation and use of dexamethasone and anticonvulsants” value was “No relation”. In the series with 398 cancer cell lines, the IC50 is 11.6 µM. The “Tumor response and clinical benefit” value with recurrent GBM was “no tumor response nor clinical benefit”. For the same molecule, in the series “clinical”, the Kp was 10, the concentration at 11 days came out at 111 nM, the concentration at 12 days was 255 nM and the concentration at 13 days is 479 nM. In “clinical”, this molecule returned a concentration at 14 days of 105 nM and a concentration at 18 days of 194 nM.

(Values after publication PMC9365363 (Clinical Cancer Research, 2022).)
